The target of series [1] is T1, Broad substrate specificity ATP-binding cassette transporter ABCG2 (Homo sapiens, UniProt Q9UNQ0).
T1 sequence (Q9UNQ0 whole entry): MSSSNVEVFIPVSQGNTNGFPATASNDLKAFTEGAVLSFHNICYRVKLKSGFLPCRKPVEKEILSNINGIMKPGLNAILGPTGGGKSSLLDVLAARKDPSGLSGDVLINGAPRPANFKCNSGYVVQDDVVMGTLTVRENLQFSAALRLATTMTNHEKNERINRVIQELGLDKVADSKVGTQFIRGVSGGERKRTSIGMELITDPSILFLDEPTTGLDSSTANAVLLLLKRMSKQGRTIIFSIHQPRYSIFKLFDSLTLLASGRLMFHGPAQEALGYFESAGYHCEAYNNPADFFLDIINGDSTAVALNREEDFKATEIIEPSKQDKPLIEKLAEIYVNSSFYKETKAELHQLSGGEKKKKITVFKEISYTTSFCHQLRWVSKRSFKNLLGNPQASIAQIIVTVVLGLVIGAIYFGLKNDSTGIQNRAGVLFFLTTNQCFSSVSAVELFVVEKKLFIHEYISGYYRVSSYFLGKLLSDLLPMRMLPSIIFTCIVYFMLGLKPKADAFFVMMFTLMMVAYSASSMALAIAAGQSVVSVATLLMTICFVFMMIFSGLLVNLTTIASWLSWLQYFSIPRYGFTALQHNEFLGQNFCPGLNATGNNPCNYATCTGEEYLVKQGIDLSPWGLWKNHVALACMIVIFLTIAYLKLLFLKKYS
Kind of series: TP_TRANSPORTER: stimulation of ATPase activity (0.1~1 u M) in BCRP-expressing Sf9 cells. It is filed as functional, cell membranes, Membrane.

In series [2] the target is T1, Broad substrate specificity ATP-binding cassette transporter ABCG2. Kind of series: TP_TRANSPORTER: efflux of Hoechst33342 in BCRP-expressing Sf9 cells. It counts as functional.

With `COc1cc2ncnc(Nc3ccc(F)c(Cl)c3)c2cc1OCCCN1CCOCC1` [GEFITINIB], the Activity entry in series [1] was “inhibitor []”.
`CC#CC(=O)Nc1ccc2ncnc(Nc3cccc(Br)c3)c2c1` returned a 50% inhibitory concentration (IC50) in series [2] of 0.2 µM. In addition, the Activity entry in series [1] is “inhibitor []”.

These data come from ChEMBL document CHEMBL2074416, “High-affinity interaction of tyrosine kinase inhibitors with the ABCG2 multidrug transporter” (Mol Pharmacol, 2004).
